Structures are written as SMILES. Entries after “also recorded” stand apart in the source; their conditions may differ. Read-outs that look alike come from different tables or passages of the source.

Experimental findings from patent publication US9751825B2, “TAK1 kinase inhibitors, compositions, and used related thereto” (Emory University, priority 2011, dated 2017) are described below.

Series [1] can be described thus: Stability of the isolated product at room temperature. The class given is physicochemical.
The subject of series [2] is prostate cancer cells (PC3) and breast cancer MDA-MB-231 cells. The experiment in a line: Tumor cell growth with kinase inhibitors, with or without TNFα (FIG. 2). It is filed as cell-based. To be noted: 48 hrs; for tumor cell growth: 5 μM U0126, 10 μM 1478, 5 μM 5Z-7-oxozeanol, 5 μM HDAB001, 5 μM SB431542; for repression of tumor cell growth together with TNFα: TNFα (10 ng/ml). The text has this:
The response of prostate cancer cells (PC3, FIG. 2) and breast cancer MDA-MB-231 cells to HDAB001 was compared with responses to known kinase inhibitors, including 5Z-7-oxozeanol, a selective inhibitor of TAK1; U0126, a selective MEK inhibitor; AG1478, a selective EGFR inhibitor; SB431542, TGFBR1 inhibitor.

A further series concerns phosphorylation of Smad2. The experiment in a line: Phosphorylation of Smad2 in TGFβ1-treated cells. It is filed as cell-based. The settings on record: 2 ng/ml TGFβ1 for 2 hours; HDAB001 10 μM. On the procedure: (§1) MEK inhibitor U0126 inhibits phosphorylation of ERK and EGFR inhibitor blocks EGFR-mediated phospho-ERK in MCF10A.
(§2) The selectivity of the HDAB001 and HDAB006 compounds was tested in several cell-based assays examining the kinase activity of RAF, MEK, EGFR and TGFBR1. Several known inhibitors of the above kinases were used for control. Two luciferase reporters NF-KB-Luc and SBE-Luc were transfected in MDA-MB-231 cells to assess the effect of compounds on NF-KB and TGF-beta receptor-Smad signaling events. […] See Safina et al., TAK1 is required for TGF-[beta]1-mediated regulation of matrix metalloproteinase-9 and metastasis. Oncogene, 2008, 27, 1198-1207. […] The kinase activities of TGF-beta receptors type I and type II are required for phosphorylation of Smad2.

Series [3] deals with Non-tumor MCF10A (ER-, PR-) cells. The experiment in a line: Cytotoxicity in non-tumor MCF10A cells. It is filed as cell-based, human. On the procedure:
(§3) The assay consists of treatment of cells with the synthetic compounds (a range of concentrations) and subsequent quantification of the cells by staining with methylene blue and measuring optical density of the resulting colored solution. The measured optical densities are normalized to a vehicle-control and the normalized values are used to determine IC50 values for a given compound using SigmaPlot software, Systat Software, Inc., San Jose, Calif. Cells were seeded in 96-well plate at 2-5,000 cells/well in 100 μl. Next day cells were treated with HDAB compounds. Stocks of compounds (10 mM) were prepared by dissolving in DMSO. Consecutive dilutions ranging 10 nM-100 μM concentrations were prepared as 2× solutions in media, and 100 μl solutions were added to cells for treatment. DMSO was used as a vehicle control. Cells were incubated with compounds for 48 hours at 37° C. in a CO2-incubator. For cell staining, media was removed and cells were fixed and stained with 0.5% Methylene blue in water/methanol (50:50) solution for 1 hour at room temperature (RT). After extensive rinsing in ddH2O the plates were dried over-night. Cells were solubilized in 100 μl/well of 1% SDS in PBS for 10 minutes at RT, the absorbance at 650 nm (methylene-blue absorbance) and 540 nm (background) was read with a SpectraMax fluorimeter and the difference Abs650-Abs540 was calculated. […]

The test system of series [4] is breast, prostate and lung carcinoma and non-tumor cell lines. The class given is cell-based. On the procedure:
(§4) The assay consists of treatment of cells with the synthetic compounds (a range of concentrations) and subsequent quantification of the cells by staining with methylene blue and measuring optical density of the resulting colored solution. The measured optical densities are normalized to a vehicle-control and the normalized values are used to determine IC50 values for a given compound using SigmaPlot software, Systat Software, Inc., San Jose, Calif. Cells were seeded in 96-well plate at 2-5,000 cells/well in 100 μl. Next day cells were treated with HDAB compounds. Stocks of compounds (10 mM) were prepared by dissolving in DMSO. Consecutive dilutions ranging 10 nM-100 μM concentrations were prepared as 2× solutions in media, and 100 μl solutions were added to cells for treatment. DMSO was used as a vehicle control. Cells were incubated with compounds for 48 hours at 37° C. in a CO2-incubator. For cell staining, media was removed and cells were fixed and stained with 0.5% Methylene blue in water/methanol (50:50) solution for 1 hour at room temperature (RT). After extensive rinsing in ddH2O the plates were dried over-night. Cells were solubilized in 100 μl/well of 1% SDS in PBS for 10 minutes at RT, the absorbance at 650 nm (methylene-blue absorbance) and 540 nm (background) was read with a SpectraMax fluorimeter and the difference Abs650-Abs540 was calculated.
Assays were carried out with a panel of breast, prostate and lung carcinoma and non-tumor cell lines with HDAB-001. […] The selectivity trend for HDAB001 was further validated in a set of prostate carcinoma and non-tumor epithelial cell lines.

For series [5], the system named is breast carcinoma MDA-MB-231 cells. As to the kind of experiment: Cytotoxicity assay (methylene blue staining), MDA-MB-231 cells. It is filed as cell-based. On the procedure:
as §4

Series [6] concerns phosphorylation of ERK1/2. As to the kind of experiment: Phosphorylation of ERK1/2 in MDA-MB-231 cells. To be noted: 2 ng/ml TGFβ1 for 2 hours, 10 μM HDAB001, 5 μM U0126. It is filed as cell-based. On the procedure: as §1, §2
In series [7] the test system is Non-tumor MCF12A (ER+) cells. The experiment in a line: Cytotoxicity in non-tumor MCF12A cells. It is filed as cell-based, human. On the procedure:
as §3

A further series deals with ER/HER2-positive lines. The experiment in a line: Cytotoxicity in ER/HER2-positive breast carcinoma lines. To be noted: two ER/HER2-positive lines. It is filed as cell-based. On the procedure:
as §3

Another series has as its system SBE-Luc. As to the kind of experiment: SBE-Luc luciferase reporter (TGF-beta receptor-Smad signaling) in MDA-MB-231 cells. It is filed as cell-based. On the procedure: FIG. 3A-B show data on the luciferase activity of NFkB-Luc and SBE-Luc reporters in MDA-MB-231 control, dnTAK1 or cells treated with HDAB001 and HDAB006, P-values by the ANOVA test.
as §2
(In general: In a reporter assay the amount or activity of a reporter protein is the signal.)

The next series relates to ER-positive cell lines. As to the kind of experiment: Cytotoxicity in ER-positive breast carcinoma cell lines. The class given is cell-based. The settings on record: three ER-positive cell lines. On the procedure: as §3
In a further series the test system is RWPE-2. The experiment in a line: Cytotoxicity of HDAB001 in prostate carcinoma cell lines, RWPE-2. It is filed as cell-based. To be noted: RWPE-2, AR pos, tumor, metastatic. On the procedure: as §3
In the next series the test system is phosphorylation of ERK. The experiment in a line: Phosphorylation of ERK in non-tumor MCF10A cells with EGF-mediated signaling. To be noted: 10 μM HDAB001, 10 μM AG1478. The class given is cell-based, human. On the procedure: as §1, §2
The subject of series [8] is mouse carcinoma cell line 4T1. The experiment in a line: Cytotoxicity in mouse carcinoma cell line 4T1. The class given is cell-based. To be noted: 4T1 (from BALB/c mice). On the procedure:
as §3

The test system of a further series is LNCaP-C4-2. The experiment in a line: Cytotoxicity of HDAB001 in prostate carcinoma cell lines, LNCaP-C4-2. The class given is cell-based. The settings on record: LNCaP-C4-2, AR pos, ind, metastatic. On the procedure: as §3
The subject of the next series is LNCaP. The experiment in a line: Cytotoxicity of HDAB001 in prostate carcinoma cell lines, LNCaP. To be noted: AR pos, tumor. The class given is cell-based. On the procedure:
as §3

A further series deals with PC3. As to the kind of experiment: Cytotoxicity of HDAB001 in prostate carcinoma cell lines, PC3. The settings on record: PC3, AR neg, metastatic. It is filed as cell-based. On the procedure: as §3
The next series has as its system RWPE-1. As to the kind of experiment: Cytotoxicity of HDAB001 in prostate cell lines, RWPE-1 (non-tumor). It is filed as cell-based. To be noted: RWPE-1, AR pos. On the procedure: as §3
Where [9] appears, read: triple-negative MDA-MB-231 cells.

On to `COC(=O)/C=C\C=C(\C(=O)N(C)OC)c1ccc(Cl)c(Cl)c1` [Compound 1-63h, (2Z,4E)-methyl 5-(3,4-dichlorophenyl)-6-(methoxy(methyl)amino)-6-oxohexa-2,4-dienoate], for which the stability after isolation result in [1] is listed as “decomposed at room temperature”.
With `NC(=O)c1ccc(-c2nc(-c3ccc4c(c3)OCO4)c(-c3ccccn3)[nH]2)cc1` [SB431542, reference compound], the tumor cell growth entry in series [2] is on record as “resistant”. Further, in the series on phosphorylation of Smad2, the “phosphorylation of Smad2” value is reported as “blocked”.
In the case of `O=c1[nH]cc(F)c(=O)[nH]1` [Compound 5FU, 5-FluororoUricil, reference compound], the IC50 (commonly the concentration needed to halve the response being measured) in series [3] was determined as 1800 nM; in [5] (setting [9]), 5700 nM. Besides, in [4], the “more toxic to non-tumor MCF10A than to breast cancer MDA-MB-231 cells” value is 3-10 fold.
As to `COc1cc(O)c2c(c1)/C=C/C[C@H](O)[C@H](O)C(=O)/C=C\C[C@H](C)OC2=O` [5Z-7-oxozeanol], in series [2], the tumor cell growth entry was “markedly inhibited” and the “repression of tumor cell growth together with TNFα” value is listed as “cooperated with TNFα”.
On to `N#CC(=C(/N)Sc1ccccc1N)/C(C#N)=C(\N)Sc1ccccc1N` [Compound U0126], for which the tumor cell growth entry in [2] is “less sensitive”. The “phosphorylation of ERK1/2” value in series [6] is reported as “inhibits; also recorded: effectively blocked”.
Regarding `COC(=O)/C=C\C=C(\C(=O)OC)c1ccc(Br)c(Br)c1` [HDAB022, (2E,4Z)-dimethyl 2-(3,4-dibromophenyl)hexa-2,4-dienedioate], the midpoint of inhibition in series [5] (Homo sapiens, MDA-MB-231 cells, 48 hours incubation, methylene blue staining), the IC50, lay at 2160 nM.
Turning to `COC(=O)/C=C\C=C(\C(=O)OC)c1ccc(Cl)c(Cl)c1` [HDAB001], the concentration for half-maximal inhibition (IC50) in [7] is over 100000 nM; with ER/HER2-positive lines it was 1000 to 1500 nM; in the series on ER-positive cell lines, 300 to 750 nM; with RWPE-2 it was 2400 nM; in series [3], 48000 nM; in series [8], 530 nM. Moreover, the IC50 was determined as 500 nM in the series with LNCaP-C4-2; 2100 nM with LNCaP; 2300 nM in the series with PC3; 40100 nM in the series with RWPE-1; 4620 nM in series [5] (MDA-MB-231 cells, 48 hours incubation, methylene blue staining); 3700 nM in [5] (setting [9]). In addition, in series [2], the tumor cell growth result was “markedly inhibited”. For the same molecule, in series [2], the “repression of tumor cell growth together with TNFα” value is “cooperated with TNFα”. Moreover, the TGF-beta reporter activity result in the series on SBE-Luc is reported as “did not affect”. The “IC50 in non-tumor MCF10A and MCF12A cells relative to tumor cells” value in series [4] (non-tumor vs tumor cells) is reported as about 20 fold. Besides, the “selectivity for tumor cells compared to non-tumor cells” value in series [4] (tumor vs non-tumor cells) was “at least twenty-fold”. For the same molecule, the “phosphorylation of ERK in the presence of EGF-mediated signaling” value in the series with phosphorylation of ERK was “did not affect”. For the same molecule, the “phosphorylation of Smad2” value in the series with phosphorylation of Smad2 is “did not affect”. For the same molecule, the “phosphorylation of ERK1/2” value in [6] is given as “did not affect”.
For `COc1cc2ncnc(Nc3cccc(Cl)c3)c2cc1OC` [AG1478], in series [2], the tumor cell growth result was “resistant”. For the same molecule, the “phosphorylation of ERK in the presence of EGF-mediated signaling” value in the series on phosphorylation of ERK is “blocked”.
Regarding `COc1cccc2c1C(=O)c1c(O)c3c(c(O)c1C2=O)C[C@@](O)(C(=O)CO)C[C@@H]3O[C@H]1C[C@H](N)[C@H](O)[C@H](C)O1` [Doxorubicin, reference compound], the “more toxic to non-tumor MCF10A than to breast cancer MDA-MB-231 cells” value in [4] (human, 48 h) is listed as 3-10 fold.
